Test results reported in US10940188B2, “Compounds and methods for treatment and prevention of Flavivirus infection” (priority 2016, dated 2021).
Structures can show the parent of a compound that is named as a salt. Where two headings read alike, the source gives them in different places.

Key:
ZIKV MR766 NS1 = assay: microbe, parasite or virus in culture; type: cell-based, Zika virus; details: Zika virus, HEK293, 48 h, read-out: NS1-IC50
Protocol: A one-step NS1 TR-FRET (Time-resolved fluorescence resonance energy transfer) assay for a screen of anti-ZIKV compounds was carried out. Human embryonic kidney cell line HEK293 cells were seeded into 384-well plates and infected with ZIKV MR766 at a MOI of 0.5 for 2 days. The FRET assay was performed with two clones of anti-NS1 antibody (ab) differentially labelled with donor and acceptor fluorophores.

[1] = tested on: ZIKV-induced caspase 3/7 activity in human astrocytes; assay: Caspase 3/7 activity assay, ZIKV-infected human astrocytes; type: cell-based; details: ZIKV-infected human astrocytes; for IC50: read-out: Caspase 3 (IC50, uM) Astrocyte; for Emax: read-out: Caspase 3 (efficacy, %) Astrocyte
Protocol: (§1) Caspase-Glo 3/7 assay kit (catalog number G8092; Promega, Madison, Wis.) was used to detect caspase 3/7 activity. Reagents were reconstituted as described in the protocol from the manufacturer. Polystyrene plates (384-well and 1536-well; regular tissue culture treated and PDL coated) were purchased from Greiner Bio-One (Monroe, N.C.). Cells were seeded in 384- and 1536-well assay plates and cultured at 37° C. with 5% CO2 for 16 hours. ZIKV solution was added to cells, followed by incubation at 37° C. with 5% CO2 for 6 hours. Caspase-Glo 3/7 was added to each well, unless otherwise specified, and incubated at room temperature for 30 minutes. The luminescence intensity of the assay plates was measured using a ViewLux plate reader (PerkinElmer). Data were normalized by using the cell-containing wells without ZIKV as a negative control (0% induction of caspase 3/7 activity) and wells containing ZIKV infected cells that induced caspase 3/7 activity were used as a positive control (100% induction of caspase 3/7 activity). […]
(§2) Caspase-Glo 3/7 assay kit (Promega) was used to detect caspase 3/7 activity. Reagents were reconstituted as described in the protocol from the manufacturer. Cells were seeded in 384- and 1536-well assay plates and cultured at 37° C. with 5% CO2 for 16 hours. ZIKV solution was added to cells, followed by incubation at 37° C. with 5% CO2 for 6 hours. Caspase-Glo 3/7 was added to each well at a 1:1 ratio, unless otherwise specified, and incubated at room temperature for 30 minutes. The luminescence intensity of the assay plates was measured using a ViewLux plate reader (PerkinElmer). Data was normalized by using the cell-containing wells without ZIKV as a negative (0% induction of caspase 3/7 activity) control and wells containing ZIKV infected cells that induced caspase 3/7 activity were used as a positive control (100% induction of caspase 3/7 activity). […]

[2] = tested on: ZIKV-induced caspase 3/7 activity in SNB-19 cells; assay: Caspase 3/7 activity assay, ZIKV-infected SNB-19 cells; type: cell-based; details: ZIKV-infected SNB-19 cells; for IC50: read-out: Caspase 3 (IC50, uM) SNB-19; for Emax: read-out: Caspase 3 (efficacy, %) SNB-19
Protocol: as §1, §2

[3] = tested on: ZIKV-induced caspase 3/7 activity in hNPCs; assay: Caspase 3/7 activity assay, ZIKV-infected hNPCs; type: cell-based; details: ZIKV-infected hNPCs; for IC50: read-out: Caspase 3 (IC50, uM) NPCs; for Emax: read-out: Caspase 3 (efficacy, %) NPCs
Protocol: Caspase-Glo 3/7 assay kit (catalog number G8092; Promega, Madison, Wis.) was used to detect caspase 3/7 activity. Reagents were reconstituted as described in the protocol from the manufacturer. Polystyrene plates (384-well and 1536-well; regular tissue culture treated and PDL coated) were purchased from Greiner Bio-One (Monroe, N.C.). Cells were seeded in 384- and 1536-well assay plates and cultured at 37° C. with 5% CO2 for 16 hours. ZIKV solution was added to cells, followed by incubation at 37° C. with 5% CO2 for 6 hours. Caspase-Glo 3/7 was added to each well, unless otherwise specified, and incubated at room temperature for 30 minutes. The luminescence intensity of the assay plates was measured using a ViewLux plate reader (PerkinElmer). Data were normalized by using the cell-containing wells without ZIKV as a negative control (0% induction of caspase 3/7 activity) and wells containing ZIKV infected cells that induced caspase 3/7 activity were used as a positive control (100% induction of caspase 3/7 activity).
Human NPCs were seeded onto PDL coated 1536-well assay plates at 250 cells per 3 μl/well and incubated at 37° C. in 5% CO2 for 16 hours. Test compounds dissolved in DMSO were transferred to assay plates at a volume of 23 nl/well by an automated pintool workstation (Wako Automation, San Diego, Calif.). Compounds were incubated with cells for 30 minutes at 37° C. in 5% CO2, immediately followed by the addition of 2 μl/well of ZIKV. Incubation time of compound-treated cells with ZIKV varied based on assay format. Experiments measuring virus-induced caspase 3/7 activity required a 6 hour incubation of ZIKV in the presence compounds at 37° C. in 5% CO2. Following this incubation, 3.5 μl/well of caspase 3/7 reagent mixture was added to assay plates. The plates were incubated for 30 minutes at room temperature, and the resultant luminescence signal was measured using a ViewLux plate reader (Perkin Elmer). Experiments measuring virus-induced cell death required a 72-hour incubation of ZIKV in the presence of compounds at 37° C. in 5% CO2. Following this incubation, 3.5 μl/well of ATP content detection reagent was added to assay plates, incubated for 30 minutes at the room temperature, and the resultant luminescence signal was measured in a ViewLux plate reader.
Caspase-Glo 3/7 assay kit (Promega) was used to detect caspase 3/7 activity. Reagents were reconstituted as described in the protocol from the manufacturer. Cells were seeded in 384- and 1536-well assay plates and cultured at 37° C. with 5% CO2 for 16 hours. ZIKV solution was added to cells, followed by incubation at 37° C. with 5% CO2 for 6 hours. Caspase-Glo 3/7 was added to each well at a 1:1 ratio, unless otherwise specified, and incubated at room temperature for 30 minutes. The luminescence intensity of the assay plates was measured using a ViewLux plate reader (PerkinElmer). Data was normalized by using the cell-containing wells without ZIKV as a negative (0% induction of caspase 3/7 activity) control and wells containing ZIKV infected cells that induced caspase 3/7 activity were used as a positive control (100% induction of caspase 3/7 activity).
Human NPCs were seeded onto PDL coated 1536-well assay plates at 250 cells per 3 μl/well and incubated at 37° C. in 5% CO2 for 16 hours. Test compounds dissolved in DMSO were transferred to assay plates at a volume of 23 nl/well by an automated pintool workstation (Wako Automation, San Diego, Calif.). Compounds were incubated with cells for 30 minutes at 37° C. in 5% CO2, immediately followed by the addition of 2 μl/well of ZIKV. Incubation time of compound-treated cells with ZIKV varied based on assay format. Experiments measuring virus induced caspase 3/7 activity required a 6 hour incubation of ZIKV in the presence compounds at 37° C. in 5% CO2. […]

[4] = tested on: ZIKV-induced cell death in human astrocytes; assay: ATP cell viability assay for ZIKV-induced cell death, human astrocytes; type: cell-based; details: for IC50: read-out: Cell viability (IC50, uM) Astrocyte
[5] = tested on: ZIKV-induced cell death in SNB-19 cells; assay: ATP cell viability assay for ZIKV-induced cell death, SNB-19 cells; type: cell-based, human; details: for IC50: read-out: Cell viability (IC50, uM) SNB-19
Protocol: (§3) The reagent was reconstituted and prepared as described by the manufacturer. In order to measure the cell death caused by ZIKV infection, cells were cultured for 16 hours at 37° C. with 5% CO2 in assay plates, followed by the addition of ZIKV solution and incubation at 37° C. with 5% CO2 for 72 hours. ATPlite, the ATP monitoring reagent, was then added to the assay plates and they were incubated for 15 minutes. The resulting luminescence was measured using the ViewLux plate reader (Perkin Elmer). Data were normalized using the wells without cells as a control for 100% cell killing, and cell-containing wells without ZIKV infection were used as full cell viability (0% cell killing). […]
as §3, with “The ATPlite luminescence assay system assay kit (PerkinElmer) was used to determine cell viability. The reagent” for “The reagent”, “by the manufacture. In order” for “by the manufacturer. In order”, “followed by addition of” for “followed by the addition of”, “plates and incubated for” for “plates and they were incubated for”, “Elmer). Data was normalized using” for “Elmer). Data were normalized using”

Compound | IC50 (ZIKV MR766 NS1) | Caspase 3 (efficacy, %) Astrocyte [1] | IC50 [1] | Caspase 3 (efficacy, %) SNB-19 [2] | IC50 [2] | Caspase 3 (efficacy, %) NPCs [3] | IC50 [3] | Cell viability (efficacy, %) Astrocyte ([4]; ZIKV-infected human astrocytes) | IC50 ([4]; ZIKV-infected human astrocytes) | Cell viability (efficacy, %) SNB-19 ([5]; ZIKV-infected SNB-19 cells) | IC50 ([5]; ZIKV-infected SNB-19 cells) | IC50 ([1]; Astrocyte) | Emax ([1]; Astrocyte) | IC50 ([2]; Homo sapiens) | Emax ([2]; Homo sapiens) | IC50 ([3]; Homo sapiens) | Emax ([3]; Homo sapiens) | Cell viability (efficacy, %) Astrocyte [4] | Cell viability (efficacy, %) SNB-19 [5]
COc1cccc2c1C(=O)c1c(O)c3c(c(O)c1C2=O)C[C@@](O)(C(=O)CO)C[C@@H]3O[C@H]1C[C@H](N)[C@@H](O)[C@H](C)O1 [Epirubicin hydrochloride] | 0.492 µM |  |  |  |  |  |  |  |  |  |  |  |  |  |  |  |  |  | 
C=CC[C@@H]1/C=C(\C)C[C@H](C)C[C@H](OC)[C@H]2O[C@@](O)(C(=O)C(=O)N3CCCC[C@H]3C(=O)O[C@H](/C(C)=C/[C@@H]3CC[C@@H](O)[C@H](OC)C3)[C@H](C)[C@@H](O)CC1=O)[C@H](C)C[C@@H]2OC [FK-506] | 0.104 µM |  |  |  |  |  |  |  |  |  |  |  |  |  |  |  |  |  | 
CC(C)(C)COc1ccc(-n2cc(C(=O)O)cn2)cc1C#N [Piraxostat] |  | 70.5% | 8.91 µM | 63.5% | 21.1 µM | 67.1% | 15.8 µM | 34.7% | 63.1 µM | 60.3% | 5.01 µM |  |  |  |  |  |  |  | 
OCc1ccc(-c2ccc(-c3ccc(CO)s3)o2)s1 [RITA] |  | 41.2% | 27.5 µM | 101% | 0.22 µM | 50.9% | 14.6 µM | 81.7% | 5.81 µM | 0.0% |  |  |  |  |  |  |  |  | 
O=c1c2ccccc2nc2n1CCc1c-2[nH]c2ccccc12 [Rutaecarpine] |  |  |  |  |  |  |  | 0.0% |  | 0.0% |  | 4.89 µM | 89.5% | 5.18 µM | 86.4% | 4.61 µM | 87.5% |  | 
COc1cccc(NC(=O)/C=C/c2ccc(Cl)cc2)c1 [SB-366791] |  | 93.9% | 4.11 µM | 93.3% | 3.66 µM | 89.9% | 2.91 µM | 0.0% |  | 0.0% |  |  |  |  |  |  |  |  | 
O=C(Nc1ncc([N+](=O)[O-])s1)c1cccs1 [Tenonitrozole] |  |  |  |  |  |  |  | 0.0% |  | 0.0% |  | 2.06 µM | 88.8% | 1.95 µM | 81.7% | 1.3 µM | 81.5% |  | 
C/C(O)=C(\C#N)C(=O)Nc1ccc(C(F)(F)F)cc1 [Teriflunomide] |  |  |  |  |  |  |  | 0.0% |  | 0.0% |  | 1.3 µM | 86.9% | 1.03 µM | 93.1% | 0.92 µM | 94.5% |  | 
COc1ccc(/C=C/C(=O)Nc2ccccc2C(=O)O)cc1OC [Tranilast] |  |  |  |  |  |  |  | 0.0% |  | 0.0% |  | 17.3 µM | 71.6% | 17.3 µM | 70.3% | 19.5 µM | 107% |  | 
O=C(Nc1ccc(Br)cc1)c1cc(Br)cc(Br)c1O [Tribromsalan] |  |  |  |  |  |  |  |  |  |  |  | 6.9 µM | 102% | 7.74 µM | 107% | 13.8 µM | 108% | 0.0% | 0.0%
N#C/C(=C\c1ccc(O)c(O)c1)C(=O)Nc1ccccc1 [Tyrphostin AG 494] |  | 72.5% | 18.4 µM | 55.6% | 21.8 µM | 72.8% | 17.3 µM | 0.0% |  | 45.6% | 30.8 µM |  |  |  |  |  |  |  | 
O=C(O)[C@@H](c1ccc(OCc2ccc3ccccc3n2)cc1)C1CCCC1 [Veliflapon] |  |  |  |  |  |  |  | 0.0% |  | 0.0% |  | 9.2 µM | 65.9% | 13.8 µM | 70% | 9.75 µM | 74.3% |  | 
Malachite green oxalate |  | 54.0% | 17.3 µM | 0.0% |  | 62.7% | 21.8 µM |  |  |  |  |  |  |  |  |  |  | 0.0% | 0.0%
